# According to PubChem BioAssay AID330 (DTP/NCI, 2004):
# Values joined by “and” are separate entries in the source; they are usually repeats but may differ in a detail not shown here. Identical values can stand only once. Toxic doses and inconclusive results are not listed.
# Test system: P388 leukemia ip, CD2F1 mice, survival T/C
# Test: NCI In Vivo Anticancer Drug Screen. Data for tumor model P388 Leukemia (intraperitoneal) in CD2F1 (CDF1) mice
# Conditions: endpoint: median survival time, higher = longer survival
# Summary of the method: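 Mice carrying the transplanted tumor received test compound or vehicle. Survival was recorded in each group, and the value is the treated-group measurement divided by that of the vehicle-treated control group.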
# [1] = dose: 60.0 mg/kg/injection, schedule: Q01DX005 (ip), vehicle: Klucel (hydroxypropylcellulose) (HPC)
# [2] = dose: 50.0 mg/kg/injection, schedule: Q01DX005 (ip), vehicle: saline with Tween-80
# [3] = dose: 100.0 mg/kg/injection, schedule: Q01DX005 (ip), vehicle: saline with Tween-80
# [4] = dose: 200.0 mg/kg/injection, schedule: Q01DX005 (ip), vehicle: saline with Tween-80
smiles,measurement,setting,value
CC(/C=C/c1ccccc1)=N\NC(=S)Nc1ccc(Br)cc1,T/C,"dose: 100.0 mg/kg/injection, schedule: Q04DX002 (ip), vehicle: Klucel (hydroxypropylcellulose) (HPC)",97 % of control
COC(=O)N1C(C#N)=CCc2ccccc21,T/C,"dose: 60.0 mg/kg/injection, schedule: Q01DX005 (ip), vehicle: saline with Tween-80",94 % of control
same,T/C,"dose: 120.0 mg/kg/injection, schedule: Q01DX005 (ip), vehicle: saline with Tween-80",108 % of control
same,T/C,"dose: 240.0 mg/kg/injection, schedule: Q01DX005 (ip), vehicle: saline with Tween-80",97 % of control
COC(=O)C1=NC(=S)N=C(C(=O)OC)C12Cc1ccccc1C2=O,T/C,[1],92 % of control
same,T/C,"dose: 120.0 mg/kg/injection, schedule: Q01DX005 (ip), vehicle: Klucel (hydroxypropylcellulose) (HPC)",93 % of control
same,T/C,"dose: 240.0 mg/kg/injection, schedule: Q01DX005 (ip), vehicle: Klucel (hydroxypropylcellulose) (HPC)",102 % of control
CCN(CC)C(=O)c1c(OC)cc(C)cc1C(O)c1cc(OC)cc(OC)c1 (stereo not given),T/C,[2],99 % of control
same,T/C,[3],99 % of control
same,T/C,[4],96 % of control
CC1(C)OC2OCC(N=[N+]=[N-])C(O)C2O1 (stereo not given),T/C,[2],113 % of control
same,T/C,[3],101 % of control
same,T/C,[4],92 % of control
Cc1c(CNc2ccc(C(=O)NC(CC(=O)O)CC(=O)O)cc2)ccc2nc(N)nc(N)c12,T/C,"dose: 3.13 mg/kg/injection, schedule: Q04DX003 (ip), vehicle: saline",229 % of control
same,T/C,"dose: 12.5 mg/kg/injection, schedule: Q04DX003 (ip), vehicle: saline with Tween-80",118 % of control
same,T/C,"dose: 25.0 mg/kg/injection, schedule: Q04DX003 (ip), vehicle: saline with Tween-80",113 % of control
same,T/C,"dose: 33.0 mg/kg/injection, schedule: Q04DX003 (ip), vehicle: saline sonified",90 % of control
same,T/C,"dose: 50.0 mg/kg/injection, schedule: Q04DX003 (ip), vehicle: saline sonified",86 % of control
same,T/C,"dose: 50.0 mg/kg/injection, schedule: Q04DX003 (ip), vehicle: saline with Tween-80",159 % of control
Nc1nc2cc([N+](=O)[O-])cnc2s1,T/C,"dose: 100.0 mg/kg/injection, schedule: Q04DX003 (ip), vehicle: Klucel (hydroxypropylcellulose) (HPC)",103 % of control
same,T/C,"dose: 200.0 mg/kg/injection, schedule: Q04DX003 (ip), vehicle: Klucel (hydroxypropylcellulose) (HPC)",101 % of control
same,T/C,"dose: 400.0 mg/kg/injection, schedule: Q04DX003 (ip), vehicle: Klucel (hydroxypropylcellulose) (HPC)",100 % of control
COC(=O)CCCC#C/C=C/CCCC/C=C(Br)\C=C/Br,T/C,"dose: 62.5 mg/kg/injection, schedule: Q01DX009 (ip), vehicle: olive oil, sesame oil, peanut oil",101 % of control
same,T/C,"dose: 125.0 mg/kg/injection, schedule: Q01DX009 (ip), vehicle: olive oil, sesame oil, peanut oil",96 % of control
same,T/C,"dose: 250.0 mg/kg/injection, schedule: Q01DX009 (ip), vehicle: olive oil, sesame oil, peanut oil",98 % of control
COC(=O)c1nnc2n1-c1ccc(Cl)cc1C(c1ccccc1)=[N+]([O-])C2,T/C,"dose: 50.0 mg/kg/injection, schedule: Q04DX002 (ip), vehicle: saline with Tween-80",96 % of control
same,T/C,"dose: 100.0 mg/kg/injection, schedule: Q04DX002 (ip), vehicle: saline with Tween-80",104 % of control
same,T/C,"dose: 200.0 mg/kg/injection, schedule: Q04DX002 (ip), vehicle: saline with Tween-80",99 % of control
COc1ccc2c(c1OC)C(C(Cl)(Cl)Cl)N1CCc3cc4c(cc3C1=C2C=O)OCO4 (stereo not given),T/C,[2],98 % of control
same,T/C,[3],90 % of control
same,T/C,[4],90 % of control
OC(c1ccco1)c1nc2ccccc2s1 (stereo not given),T/C,"dose: 15.0 mg/kg/injection, schedule: Q01DX005 (ip), vehicle: Klucel (hydroxypropylcellulose) (HPC)",106 % of control
same,T/C,"dose: 30.0 mg/kg/injection, schedule: Q01DX005 (ip), vehicle: Klucel (hydroxypropylcellulose) (HPC)",100 % of control
same,T/C,[1],105 % of control and 92 % of control
CC1(C)CCO/C(=C\C(=O)N2Cc3cc4ccccc4nc3C2)N1,T/C,"dose: 18.75 mg/kg/injection, schedule: Q01DX001 (ip), vehicle: saline sonified",95 % of control
same,T/C,"dose: 37.5 mg/kg/injection, schedule: Q01DX001 (ip), vehicle: saline sonified",95 % of control
same,T/C,"dose: 75.0 mg/kg/injection, schedule: Q01DX001 (ip), vehicle: saline sonified",100 % of control
C=CCNC1=C2C[C@@H](C)C[C@H](OC)[C@H](O)[C@@H](C)/C=C(\C)[C@H](OC(N)=O)[C@@H](OC)/C=C\C=C(/C)C(=O)NC(=CC1=O)C2=O,T/C,"dose: 6.25 mg/kg/injection, schedule: Q01DX009 (ip), vehicle: DMSO",108 % of control
same,T/C,"dose: 6.25 mg/kg/injection, schedule: Q01DX009 (ip), vehicle: distilled water + Tween-80",112 % of control
same,T/C,"dose: 12.5 mg/kg/injection, schedule: Q01DX009 (ip), vehicle: DMSO",100 % of control
same,T/C,"dose: 12.5 mg/kg/injection, schedule: Q01DX009 (ip), vehicle: distilled water + Tween-80",112 % of control
same,T/C,"dose: 25.0 mg/kg/injection, schedule: Q01DX009 (ip), vehicle: DMSO",107 % of control
CCOC(=O)c1cnc2ncccn12,T/C,"dose: 50.0 mg/kg/injection, schedule: Q01DX009 (ip), vehicle: Klucel (hydroxypropylcellulose) (HPC)",99 % of control
same,T/C,"dose: 100.0 mg/kg/injection, schedule: Q01DX009 (ip), vehicle: Klucel (hydroxypropylcellulose) (HPC)",101 % of control
same,T/C,"dose: 200.0 mg/kg/injection, schedule: Q01DX009 (ip), vehicle: Klucel (hydroxypropylcellulose) (HPC)",91 % of control
O=C1NCC2CCCC1C2 (stereo not given),T/C,[2],101 % of control
same,T/C,[3],100 % of control
same,T/C,[4],97 % of control
C=C(C)c1nc(Oc2ccccc2)nc(Oc2ccccc2)n1,T/C,"dose: 200.0 mg/kg/injection, schedule: Q01DX001 (ip), vehicle: Klucel (hydroxypropylcellulose) (HPC)",88 % of control
same,T/C,"dose: 400.0 mg/kg/injection, schedule: Q01DX001 (ip), vehicle: Klucel (hydroxypropylcellulose) (HPC)",89 % of control
CC(C)(C)C1CN2CCO[Si](CC[Si](C)(C)C)(OCC2)O1 (stereo not given),T/C,"dose: 50.0 mg/kg/injection, schedule: Q01DX005 (ip), vehicle: Klucel (hydroxypropylcellulose) (HPC)",98 % of control
same,T/C,"dose: 100.0 mg/kg/injection, schedule: Q01DX005 (ip), vehicle: Klucel (hydroxypropylcellulose) (HPC)",97 % of control
same,T/C,"dose: 200.0 mg/kg/injection, schedule: Q01DX005 (ip), vehicle: Klucel (hydroxypropylcellulose) (HPC)",88 % of control
Cc1ccc(S(=O)(=O)N/N=C/c2ccc(O)c(Cl)c2)cc1,T/C,"dose: 12.5 mg/kg/injection, schedule: Q01DX005 (ip), vehicle: distilled water + Tween-80",102 % of control
same,T/C,"dose: 25.0 mg/kg/injection, schedule: Q01DX005 (ip), vehicle: distilled water + Tween-80",102 % of control
same,T/C,"dose: 50.0 mg/kg/injection, schedule: Q01DX005 (ip), vehicle: distilled water + Tween-80",98 % of control
same,T/C,"dose: 100.0 mg/kg/injection, schedule: Q01DX005 (ip), vehicle: distilled water + Tween-80",100 % of control
same,T/C,"dose: 200.0 mg/kg/injection, schedule: Q01DX005 (ip), vehicle: distilled water + Tween-80",99 % of control
COC(=O)C1Cc2c([nH]c3ccccc23)C(C)(C)N1 (stereo not given),T/C,"dose: 25.0 mg/kg/injection, schedule: Q01DX009 (ip), vehicle: suspension in saline",99 % of control
same,T/C,"dose: 50.0 mg/kg/injection, schedule: Q01DX009 (ip), vehicle: suspension in saline",93 % of control
same,T/C,"dose: 100.0 mg/kg/injection, schedule: Q01DX009 (ip), vehicle: suspension in saline",93 % of control
CC(C)OP(=O)(NNP(=O)(OC(C)C)OC(C)C)OC(C)C,T/C,"dose: 50.0 mg/kg/injection, schedule: Q01DX009 (ip), vehicle: saline",104 % of control
same,T/C,"dose: 100.0 mg/kg/injection, schedule: Q01DX009 (ip), vehicle: saline",105 % of control
same,T/C,"dose: 200.0 mg/kg/injection, schedule: Q01DX009 (ip), vehicle: saline",114 % of control
CCCCCCCCCCCCSC1=C(Cl)C(=O)C(OC)=C(OC)C1=O,T/C,"dose: 6.0 mg/kg/injection, schedule: Q01DX Z (ip), vehicle: saline",103 % of control
same,T/C,"dose: 6.25 mg/kg/injection, schedule: Q01DX009 (ip), vehicle: saline with Tween-80",105 % of control
same,T/C,"dose: 12.0 mg/kg/injection, schedule: Q01DX Z (ip), vehicle: saline",100 % of control
same,T/C,"dose: 12.5 mg/kg/injection, schedule: Q01DX009 (ip), vehicle: saline with Tween-80",108 % of control
same,T/C,"dose: 25.0 mg/kg/injection, schedule: Q01DX009 (ip), vehicle: saline with Tween-80",121 % of control
same,T/C,"dose: 25.0 mg/kg/injection, schedule: Q01DX Z (ip), vehicle: saline",100 % of control
same,T/C,"dose: 50.0 mg/kg/injection, schedule: Q01DX009 (ip), vehicle: saline with Tween-80",119 % of control
same,T/C,"dose: 50.0 mg/kg/injection, schedule: Q01DX Z (ip), vehicle: saline",92 % of control
O=C(O)C1OC1C(=O)O (stereo not given),T/C,"dose: 75.0 mg/kg/injection, schedule: Q04DX003 (ip), vehicle: saline",100 % of control
same,T/C,"dose: 150.0 mg/kg/injection, schedule: Q04DX003 (ip), vehicle: saline",100 % of control
same,T/C,"dose: 300.0 mg/kg/injection, schedule: Q04DX003 (ip), vehicle: saline",100 % of control
